Laboratory results taken from patent publication US20250134855A1, “CO[…] AND METHODS OF USING SAME” (LYKOS THERAPEUTICS, INC., priority 2022, published 2025).
Where a name gives a salt, the structure may show the parent alone. Read-outs that look alike come from different tables or passages of the source.

Tests used:
[1] = Forced degradation and storage stability of MDMA·HCl API; assay type: physicochemical
Source text: The crystalline, anhydrous form (Form 1) of MDMA·HCl is used for clinical development and commercialization purpose.
The long-term chemical stability of MDMA·HCl, Form I appears in FIG. 9 and FIG. 10.

healthy subjects = assay: QTc interval, randomized crossover study; assay type: in vivo, human
Method: The effect of MDMA·HCl on the QTc interval was evaluated in a randomized, crossover study in N healthy subjects.

[2] = Study MPKF: plasma pharmacokinetics of MDMA and MDA, single 120 mg MDMA·HCl, fasted/fed; assay type: in vivo, human; conditions: for Vd: read-out: volume of distribution
Source text: (§1) The MPKF was a Phase 1, open-label, randomized sequence, multi-dose, 2-period crossover food effect study in 16 healthy individuals. The MPKF study evaluated plasma concentrations of both MDMA and the active metabolite 3,4-methylenedioxyamphetamine (MDA). Summary PK Parameters of the preliminary data was based on interim analysis are presented in Table 12 Table 12 Table 12, and Table 13 Table 13 Table 13 for MDMA and MDA, respectively.
Participants were randomized to receive 1 of 2 conditions before the other: • Fasted Treatment: at least 10 hours of fasting followed by administration of MDMA HCl with 240 mL water. • Fed Treatment: at least 10 hours of fasting followed by a high-fat (approximately 50% of total caloric content of the meal) and high-calorie (approximately 800 to 1000 calories) meal was consumed within 30 minutes prior to IMP administration.
(§2) Participants remained at the clinical research unit (CRU) for each Dosing Session from the time of check-in on the night before dosing until discharge 48 hours after dosing for collection of serial blood samples for PK analysis and safety monitoring. IMP was administered on Day 1 following the treatment sequence to which the participant was randomized. An additional outpatient visit occurred 72 hours after dosing to collect a final PK sample, commensurate with the expected PK profiles of MDMA and MDA. Safety assessments were also performed at this visit.
(§3) The washout period between Dosing Sessions was at least 14 days. If a participant experienced emesis within 4 hours of administration, they were to be withdrawn from the study and replaced with a new participant. An End of Study Visit was performed 2 to 10 days after the completion of the final Dosing Session 72-hour follow-up. An informal interim analysis was planned to be conducted after at least 5 participants completed at least 1 Dosing Session to examine PK variability.
The API was a white crystalline powder of pharmaceutical quality, made according to current Good Manufacturing Practices (cGMP) for human use.
Participants: Sixteen healthy individuals were recruited for the study.
Intervention: The study was conducted as a Phase 1, open-label, randomized sequence, multi-dose, 2-period crossover food effect study. Each participant received multiple doses of MDMA, and plasma concentrations of both MDMA and the active metabolite MDA were measured.
Sample Collection: Blood samples were collected at various time points up to 72 hours after dosing. The samples were analyzed using validated liquid chromatography-tandem mass spectrometry (LC-MS/MS) methods.
Data Analysis: The summary PK parameters were presented in Table 12 for MDMA and Table 13 for MDA. The data were analyzed using descriptive statistics, and the mean and standard deviation were calculated. The results were compared between the two periods and analyzed for food effects. Statistical analyses were performed using appropriate methods, such as analysis of variance (ANOVA) and paired t-tests. A p-value of less than 0.05 was considered statistically significant.

healthy individuals = assay: Study MPKF: safety and tolerability (AEs, laboratory, vital signs); assay type: in vivo, human
Source text: as §1, §2, §3

CYP2D6 = CYP2D6 (Homo sapiens, UniProt P10635); assay: CYP2D6 inhibition
[3] = Solubility and permeability of MDMA·HCl
[4] = Stress-tests of thermal stability of MDMA·HCl; conditions: 70-80° C.
CYPs = assay: CYP induction and inhibition of CYPs other than CYP2D6
[5] = Particle size of MDMA measured by laser diffraction; assay type: physicochemical
[6] = cited from earlier work
[7] = paroxetine 20 mg a day for three days; single 100 mg dose of MDMA; cited from earlier work

CYP2D6, sequence (P10635 whole entry): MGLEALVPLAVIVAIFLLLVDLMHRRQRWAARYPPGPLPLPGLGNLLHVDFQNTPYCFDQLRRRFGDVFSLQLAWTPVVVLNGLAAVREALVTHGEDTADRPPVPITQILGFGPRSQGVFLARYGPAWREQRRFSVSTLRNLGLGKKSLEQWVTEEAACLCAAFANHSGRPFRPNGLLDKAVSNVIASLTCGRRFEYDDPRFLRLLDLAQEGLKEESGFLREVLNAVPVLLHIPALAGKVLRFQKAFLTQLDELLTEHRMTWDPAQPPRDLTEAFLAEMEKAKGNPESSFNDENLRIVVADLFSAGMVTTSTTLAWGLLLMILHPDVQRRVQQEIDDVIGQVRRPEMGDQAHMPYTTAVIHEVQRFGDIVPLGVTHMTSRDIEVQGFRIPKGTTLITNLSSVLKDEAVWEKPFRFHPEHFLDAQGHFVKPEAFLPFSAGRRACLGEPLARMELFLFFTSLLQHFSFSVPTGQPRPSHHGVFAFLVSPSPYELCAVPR

In the case of `CNC(C)Cc1ccc2c(c1)OCO2` (stereo not drawn) [MDMA·HCl, MDMA hydrochloride], the “time over which long term chemical stability remains constant” value ([1]; 25 degrees celsius at 60% RH, no change in appearance or increase in degradation products) is reported as “up to 60 months”, the forced degradation ([1]; 7 days (FIG. 8)) is reported as “minimal degradation” and the “time over which chemical stability is not affected” value ([1]; higher humidity and temperature, 40 degrees celsius at 75% RH (FIG. 11)) is reported as “up to 12 months”. The “increase in heart rate” value (healthy subjects; healthy subjects) was > 10 bpm, the QTc prolongation (healthy subjects; therapeutic dose, totality of nonclinical and clinical data) was “lack of clinically relevant QTc prolongation” and the “effect of food on exposure” value ([2]; high-fat meal vs fasting, single 120 mg MDMA·HCl) was “not affected by food”. It also gave a half-life ([2]; human, plasma, oral, 120 mg, single 120 mg dose of MDMA·HCl, fasting, read-out: t1/2 (converted)) of 9 h, a Vd ([2]; human, plasma, oral, single 100 mg dose of MDMA·HCl) of 372 L and a Vd ([2]; human, plasma, oral, single 120 mg dose of MDMA·HCl) of 430 L. For the same compound, the “participants with nausea and vomiting” value (healthy individuals; fasted session) was 12.5%, the “SAEs and AESI” value (healthy individuals; in vivo) was “No SAEs nor AESI were reported” and the overall tolerability (healthy individuals; single dose of 120 mg MDMA HCl) was “well tolerated”. For the same compound, the “participants reporting TEAEs” value (healthy individuals; single dose of 120 mg MDMA HCl) was 37.5%, the participants with headache (healthy individuals; single dose of 120 mg MDMA HCl) was 31.3% and the CYP2D6 inhibition (CYP2D6) was “strong CYP2D6 inhibitor”. The solubility [3] was “high”, the permeability ([3]; not told) was “high” and the “stability in stress-tests, duration” value [4] was 72 h. For the same compound, the “induction of CYPs” value (CYPs) was “not an inducer of CYPs” and the “inhibition of CYPs other than CYP2D6” value (CYPs; human) was “did not inhibit CYPs other than CYP2D6 in a clinically meaningful manner”.

`CNC(C)Cc1ccc2c(c1)OCO2.Cl` (stereo not drawn) [CJS194-5] gave a Dv10 [5] of 23.4 μm, a Dv50 [5] of 151 μm and a Dv90 [5] of 341 μm.

With `CNC(C)Cc1ccc2c(c1)OCO2.Cl` (stereo not drawn) [CJS194-1] the Dv10 [5] was 29.0 μm, the Dv50 [5] was 170 μm and the Dv90 [5] was 342 μm.

Compound `CNC(C)Cc1ccc2c(c1)OCO2.Cl` (stereo not drawn) [Input 201101] has a Dv10 [5] of 376 μm, a Dv50 [5] of 512 μm and a Dv90 [5] of 844 μm.

In the case of `CNC(C)Cc1ccc2c(c1)OCO2.Cl` (stereo not drawn) [Form III], the “time to spontaneous conversion to Form I” value ([6]; storage at ambient conditions) is listed as 2.5 weeks.

Compound `CNC(C)Cc1ccc2c(c1)OCO2.Cl` (stereo not drawn) [CJS194-3] has a Dv10 [5] of 20.9 μm, a Dv50 [5] of 134 μm and a Dv90 [5] of 326 μm.

For `CNC(C)Cc1ccc2c(c1)OCO2.Cl` (stereo not drawn) [Form I], the “relative stability of Forms I-III” value ([6]; polymorphic screening) is listed as “most stable of Forms I-III”.

`CNC(C)Cc1ccc2c(c1)OCO2.Cl` (stereo not drawn) [CJS194-4] showed a Dv10 [5] of 23.8 μm, a Dv50 [5] of 161 μm and a Dv90 [5] of 353 μm.

In the case of `Fc1ccc([C@@H]2CCNC[C@H]2COc2ccc3c(c2)OCO3)cc1` [Paroxetine, reference compound], the “increase of AUC0-inf of MDMA” value [7] is listed as 27% and the “increase of Cmax of MDMA” value [7] is listed as 17%.

In the case of `CNC(C)Cc1ccc2c(c1)OCO2.Cl` (stereo not drawn) [CJS194-2], the Dv10 [5] is reported as 20.0 μm, the Dv50 [5] is reported as 135 μm and the Dv90 [5] is reported as 326 μm.
